# Measurements: patent US11926634B2, “Processes for the preparation of selective estrogen receptor degraders” (Eli Lilly and Company, priority 2022, dated 2024)
# Target: T1, hERα (Homo sapiens, UniProt P03372)
# T1 construct: ERα degradation High Content Imaging assays in MCF7 ESR1 Wild Type cells; endogenous in cells; host or cells: MCF7 (ESR1 wild type)
# T1 sequence (P03372 1-595): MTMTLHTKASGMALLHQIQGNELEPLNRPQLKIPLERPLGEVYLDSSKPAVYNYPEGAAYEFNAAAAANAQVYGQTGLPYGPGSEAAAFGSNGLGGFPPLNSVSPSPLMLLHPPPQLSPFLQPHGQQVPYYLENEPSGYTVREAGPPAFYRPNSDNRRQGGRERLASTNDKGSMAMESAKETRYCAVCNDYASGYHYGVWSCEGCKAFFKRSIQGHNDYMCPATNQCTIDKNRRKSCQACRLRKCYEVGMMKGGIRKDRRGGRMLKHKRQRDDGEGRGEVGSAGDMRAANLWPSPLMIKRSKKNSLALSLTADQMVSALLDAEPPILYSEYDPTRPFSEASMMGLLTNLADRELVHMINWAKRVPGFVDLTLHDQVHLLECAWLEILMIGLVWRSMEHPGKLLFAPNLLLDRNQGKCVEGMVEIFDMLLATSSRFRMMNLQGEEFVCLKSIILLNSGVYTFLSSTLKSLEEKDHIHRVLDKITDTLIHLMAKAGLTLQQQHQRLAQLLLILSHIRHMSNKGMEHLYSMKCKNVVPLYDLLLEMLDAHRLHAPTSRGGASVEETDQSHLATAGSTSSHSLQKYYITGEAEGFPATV
# Experiment: ERα degradation high content imaging assay in MCF7 cells
# Type: cell-based
# Settings: MCF7 ESR1 Wild Type cells; output % estrogen receptor positive cells; read-out: Relative IC50 (μM), hERα Degradation Cell Assay in MCF7 Cells
# Method: Cells were fixed by adding 14% paraformaldehyde (10 μL) for 30 min at RT. The cells were washed once with PBS (20 μL) and incubated with PBS (20 μL per well) containing 0.5% (v/v) TWEEN® 20 for 1 h. Cells were washed with PBS containing 0.05% TWEEN® 20 (2×) and blocked with 3% BSA in PBS containing 0.05% TWEEN® and 0.1% TRITON™ X-100 (20 μL/well) for 1 h at RT. A 1:500 dilution of Primary antibody (20 μL) (ERα (Clone SP1) monoclonal rabbit antibody #RM-9101-S, Thermo Scientific) in 1% BSA in PBS containing 0.05% TWEEN® 20 was added, the plates were sealed and incubated overnight at 4° C. The following day the cells were washed with PBS containing 0.05% TWEEN® 20 (2×) and incubated with secondary antibody ([…]) (1:1000 dilution, Goat anti-rabbit IgM ALEXA FLUOR™ 488) in PBS 1% BSA for 105 min at RT. After incubation plates were washed with PBS (2×20 μL), and PBS (20 μL) containing RNase (Sigma) (50 μg/mL) and 1:1000 propidium iodide dilution was added per well. Plates were sealed and incubated 1 h at RT (preserved from light). The plates were scanned with ACUMEN EXPLORER™ [Laser-scanning fluorescence microplate cytometer manufactured by TTP LABTECH LTD] to measure ERa. Image analysis was based on cellular fluorescent signals for identifying positive cells. Estrogen receptor positive cells were identified by mean intensity. Total intensity at 575-640 nm from propidium iodide/DNA was used to identify individual cells. Assay output was % estrogen receptor positive cells. The IC50 was determine by curve fitting to a four-parameter logistic for each output using GENE DATA™. Raw data (FLU) were plotted as nonlinear regression through […]© tool. Data was analyzed using a 4-parameter nonlinear logistic equation (four-parameter logistic concentration-response curve): Y=bot+[(top-bot)/1+(x/IC50) slope] where Y=% inhibition, x=concentration yielding y % inhibition, Bottom=minimum value of y attained by curve, Top=maximum value of y attained by curve and Slope=steepness of curve at IC50. % Inh=[(median Max−x/median Max−median Min)]×100.
Compound,DC50 [µM],IC50 [µM]
CCOC(COc1ccc(C(=O)c2c(-c3ccc(C(F)(F)F)cc3F)cnc3cc(O)ccc23)cc1)OCC,> 2,
O=C(c1ccc(OCCN2CC(CF)C2)cc1)c1c(Cl)cnc2cc(O)ccc12,0.126 ± 0.0442,
O=C(c1ccc(OCCN2CC(CF)C2)cc1)c1c(-c2ccc(C(F)(F)F)cc2F)cnc2cc(O)ccc12,,0.00216
CCOC(COc1ccc(C(O)c2c(-c3ccc(C(F)(F)F)cc3F)cnc3cc(O)ccc23)cc1)OCC (stereo not shown),> 2,
Oc1ccc2c(C(O)c3ccc(OCCN4CC(CF)C4)cc3)c(-c3ccc(C(F)(F)F)cc3F)cnc2c1 (stereo not shown),0.278 ± 0.126,
CCOC(COc1ccc(C2Oc3cc(C(F)(F)F)ccc3-c3cnc4cc(O)ccc4c32)cc1)OCC (stereo not shown),> 2,
O=CCOc1ccc(C2Oc3cc(C(F)(F)F)ccc3-c3cnc4cc(O)ccc4c32)cc1 (stereo not shown),> 2,
